Several values for one entry are separate records, joined by “and”; a condition that tells them apart may be missing. Equal values may be shown once.
What was measured:
MCF-7, cancer cell line = experiment: MCF-7 growth inhibition (SRB or Sysmex cell counting); assay type: cell-based; details: SRB or CC assay
[1] = test system: Human umbilical vein endothelial cells; experiment: Proliferation Assay - activated endothelium (MTT); assay type: cell-based; details: HUVEC, range within which the IC50 value falls, 48 hrs culture, read-out: Inhib activated HUVECs IC50
Method: Proliferation Assay—activated endothelium: Human umbilical vein endothelial cells (CC-2519, Clonetics) were plated at 2500 cells/well in EGM2 (CC-3162, Clonetics) in a 96 well plate in triplicate. Cells were cultured overnight at 37° C. 5% CO2. Medium was subsequently replaced with fresh medium including the compound or negative control. Cells were cultured for a period of 48 hrs. An MTT assay was performed to measure changes in cell numbers. Briefly, 20 μl of MTT reagent was added to cells containing 100 μl of EGM2 and incubated at 37° C. for 2 hours. Absorbance was measured at 492 nm.

[2] = concentration required to inhibit net cell growth by 50%
[3] = Homo sapiens, MCF7, concentration required to inhibit net cell growth by 50%

IC50 (MCF-7, cancer cell line; [2])	IC50 (MCF-7, cancer cell line; [3]) [nM]	Molecule	IC50 [1] [nM]
1.4 nM and 2.2 nM	–	2-Imidazol-1-yl-7-O-bis-(triethylammonium)phosphate-6-methoxy-3-(3,4,5-trimethoxybenzoyl)-benzo[b]furan [Entry 49]	–
35 nM	48	COc1cc(C(=O)c2c(-c3cnn(C)c3)oc3c(OC(C)C)c(OC)ccc23)cc(OC)c1OC [Entry 13]	–
3.4 nM	3	COc1cc(C(=O)c2c(-c3cn[nH]c3)oc3c(O)c(OC)ccc23)cc(OC)c1OC [Entry 16, [7-Hydroxy-6-methoxy-2-(1H-pyrazol-4-yl)-benzofuran-3-yl]-(3,4,5-trimethoxyphenyl)-methanone]	1 to 10
83 nM	110	COc1ccc2c(C(=O)c3cc(OC)c(OC)c(OC)c3)c(-c3cnn(Cc4ccccc4)c3)oc2c1 [Entry 17, [2-(1-Benzyl-1H-pyrazol-4-yl)-6-methoxy-benzofuran-3-yl]-(3,4,5-trimethoxyphenyl)-methanone]	100 to 1000
29 nM	25	COc1cc(C(=O)c2c(-c3cnn(C)c3)oc3c(O)c(OC)ccc23)cc(OC)c1O [Entry 22]	–
4.4 nM	3.3	COc1cc(OC)cc(C(=O)c2c(-c3cnn(C)c3)oc3c(O)c(OC)ccc23)c1 [Entry 24, 2-(4-N-methylpyrazolyl)-3-(3,5-dimethoxybenzoyl)-6-methoxy-7-hydroxy-benzofuran]	1 to 10
57 nM	68	COc1cc(C(=O)c2c(-c3c(C)noc3C)oc3c(O)c(OC)ccc23)cc(OC)c1OC [Entry 25, 2-(3,5-dimethylisoxazol-4-yl)-7-hydroxy-3-(3,4,5-trimethoxy-benzoyl)-6-methoxybenzo[b]furan]	10 to 100
< 1 nM	1.6	COc1cc(C(=O)c2c(-n3ccnc3)oc3c(O)c(OC)ccc23)cc(OC)c1OC [Entry 27, 2-(N-imidazolyl)-7-hydroxy-3-(3,4,5-trimethoxybenzoyl)-6-methoxy-benzo[b]furan]	1 to 10
4 nM	3.8	COc1ccc2c(C(=O)c3cc(OC)c(OC)c(OC)c3)c(-c3cnn(CC(N)=O)c3)oc2c1 [Entry 31, 2-{4-[6-Methoxy-3-(3,4,5-trimethoxy-benzoyl)-benzo[b]furan-2-yl]-pyrazol-1-yl}-acetamide]	1 to 10
4 nM	3.6	COc1ccc2c(C(=O)c3cc(OC)c(OC)c(OC)c3)c(-c3cn[nH]c3)oc2c1 [Entry 32, 6-Methoxy-2-(1H-pyrazol-4-yl)-3-(3,4,5-trimethoxybenzoyl)benzo[b]furan]	1 to 10
600 nM	540	COc1cc(C(=O)c2c(-c3cnn(C)c3)oc3c2ccc2ocnc23)cc(OC)c1OC [Entry 33]	100 to 1000
35 nM	40	COc1ccc2c(C(=O)c3cc(OC)c(OC)c(OC)c3)c(-c3cn(C)cn3)oc2c1 [Entry 39, [2-(1-methyl-1H-Imidazol-4-yl)-6-methoxy-benzofuran-3-yl]-(3,4,5-trimethoxyphenyl)-methanone]	10 to 100
5.7 nM	4.5	COc1ccc2c(C(=O)c3cc(OC)c(OC)c(OC)c3)c(-c3c[nH]cn3)oc2c1 [Entry 45, [2-(1H-Imidazol-4-yl)-6-methoxy-benzofuran-3-yl]-(3,4,5-trimethoxyphenyl)-methanone]	1 to 10

More lines, now with the values behind:

Molecule	IC50 (MCF-7, cancer cell line; [2])	IC50 (MCF-7, cancer cell line; [3]) [nM]	IC50 [1] [nM]
COc1ccc(/C=C\c2cc(OC)c(OC)c(OC)c2)cc1O [Entry 1, reference compound]	–	–	1 to 10
COc1cc(C(=O)c2coc3c(O)c(OC)ccc23)cc(OC)c1OC [Entry 7, reference compound]	31 nM	62	10 to 100
COc1ccc(-c2oc3c(OP(=O)(O)O)c(OC)ccc3c2C(=O)c2cc(OC)c(OC)c(OC)c2)cc1 [Entry 8, reference compound]	4.2 nM and 6 nM and 4.7 nM	3.6	–
COc1cc(C(=O)c2coc3c(OP(=O)(O)O)c(OC)ccc23)cc(OC)c1OC [Entry 9, reference compound]	82 nM	41	–
COc1cc(C(=O)c2c(-c3cnn(Cc4ccccc4)c3)oc3c(O)c(OC)ccc23)cc(OC)c1OC [Entry 15]	3.3 nM	4.1	–
COc1ccc2c(C(=O)c3cc(OC)c(OC)c(OC)c3)c(-c3ccsc3)oc2c1 [Entry 18, 2-(3-Thiophenyl)-3-(3,4,5-trimethoxybenzoyl)-6-methoxy-benzo[b]furan]	22 nM	17	10 to 100
COc1ccc2c(C(=O)c3cc(OC)c(OC)c(OC)c3)c(-c3cnn(C)c3)[nH]c2c1 [Entry 19, [6-Methoxy-2-(1-methyl-1H-pyrazol-4-yl)-1H-indol-3-yl]-(3,4,5-trimethoxyphenyl)-methanone]	–	12	10 to 100
COc1cc(C(=O)c2c(-c3cnn(C)c3)oc3c([N+](=O)[O-])c(OC)ccc23)cc(OC)c1OC [Entry 20, [6-Methoxy-7-nitro-2-(1-methyl-1H-pyrazol-4-yl)-benzofuran-3-yl]-(3,4,5-trimethoxyphenyl)-methanone]	40 nM	33	10 to 100
COc1cc(C(=O)c2c(-c3cnn(CC(C)C)c3)oc3c(O)c(OC)ccc23)cc(OC)c1OC [Entry 26, 2-(4-N-isobutyl-pyrazolyl)-7-hydroxy-3-(3,4,5-trimethoxy-benzoyl)-6-methoxy-benzo[b]furan]	14 nM	21	1 to 10
COc1cc(C(=O)c2c(-c3cccs3)oc3c(O)c(OC)ccc23)cc(OC)c1OC [Entry 28, 7-Hydroxy-2-(2-thiophenyl)-3-(3,4,5-trimethoxybenzoyl)-6-methoxy-benzo[b]furan]	–	< 1	0.1 to 1
COc1ccc2c(C(=O)c3cc(OC)c(OC)c(OC)c3)c(-c3cnn(CC(=O)O)c3)oc2c1 [Entry 29, Sodium {4-[6-Methoxy-3-(3,4,5-trimethoxy-benzoyl)-benzo[b]furan-2-yl]-pyrazol-1-yl}-acetate]	540 nM	900	100
CCOC(=O)Cn1cc(-c2oc3cc(OC)ccc3c2C(=O)c2cc(OC)c(OC)c(OC)c2)cn1 [Entry 30, {4-[6-Methoxy-3-(3,4,5-trimethoxy-benzoyl)-benzofuran-2-yl]-pyrazol-1-yl}-acetic acid ethyl ester]	15 nM	29	10 to 100
COc1cc(C(=O)c2c(-n3cccn3)oc3c(O)c(OC)ccc23)cc(OC)c1OC [Entry 34, 2-(N-pyrazolyl)-7-hydroxy-3-(3,4,5-trimethoxybenzoyl)-6-methoxy-benzo[b]furan]	2.4 nM	3.5	100 to 1000
COc1cc(C(=O)c2c(-n3ccnn3)oc3c(O)c(OC)ccc23)cc(OC)c1OC [Entry 35, 2-(1N-1,2,3-triazolyl)-7-hydroxy-3-(3,4,5-trimethoxybenzoyl)-6-methoxy-benzo[b]furan]	–	–	1 to 10
COc1cc(C(=O)c2c(-c3ccc(C=O)s3)oc3c(O)c(OC)ccc23)cc(OC)c1OC [Entry 37, 2-(2-thiophene-5-carbaldehyde)-7-hydroxy-3-(3,4,5-trimethoxybenzoyl)-6-methoxy-benzo[b]furan]	2.3 nM	1.8	1 to 10
COc1cc(C(=O)c2c(-n3cccc3)oc3c(O)c(OC)ccc23)cc(OC)c1OC [Entry 38, 2-(1-pyrolyl)-7-hydroxy-3-(3,4,5-trimethoxybenzoyl)-6-methoxy-benzo[b]furan]	2.1 nM	1.4	1 to 10
COc1ccc(-n2cc(-c3oc4cc(OC)ccc4c3C(=O)c3cc(OC)c(OC)c(OC)c3)cn2)cc1 [Entry 40, {6-Methoxy-2-[1-(4-methoxy-phenyl)-1H-pyrazol-4-yl]-benzofuran-3-yl}-(3,4,5-trimethoxyphenyl)-methanone]	350 nM	360	100 to 1000
COc1cc(C(=O)c2c(-c3cnn(C)c3)oc3c(F)c(OC)ccc23)cc(OC)c1OC [Entry 41]	3.6 nM	4.2	1 to 10
COc1ccc2c(C(=O)c3cc(OC)c(OC)c(OC)c3)c(-c3cnn(CCN(C)C)c3)oc2c1 [Entry 42, {2-[1-(2-Dimethylamino-ethyl)-1H-pyrazol-4-yl]-6-methoxy-benzofuran-3-yl}-(3,4,5-trimethoxyphenyl)-methanone]	310 nM	300	100 to 1000
COc1cc(C(=O)c2c(-n3cncn3)oc3c(O)c(OC)ccc23)cc(OC)c1OC [Entry 43, 2-(1,2,4-triazol-1-yl)-7-hydroxy-3-(3,4,5-trimethoxybenzoyl)-6-methoxy-benzo[b]furan]	0.32 nM	0.37	0.1 to 1
COc1cc(C(=O)c2c(-c3ccco3)oc3c(OP(=O)(O)O)c(OC)ccc23)cc(OC)c1OC [Entry 47, 7-(O-disodiumphosphate)-2-(2-furyl)-6-methoxy-3-(3,4,5-trimethoxybenzoyl)benzo-[b]furan]	0.31 nM	0.26	–
COc1cc(C(=O)c2c(-c3nccs3)oc3c(OP(=O)(O)O)c(OC)ccc23)cc(OC)c1OC [Entry 48, 2-(2-Thiazolyl)-7-O-disodiumphosphate-6-methoxy-3-(3,4,5-trimethoxybenzoyl)-benzo[b]furan]	0.4 nM	0.53	–
COc1cc(C(=O)c2c(-c3cnn(CC(N)=O)c3)oc3c(O)c(OC)ccc23)cc(OC)c1OC [Entry 51, 2-{4-[7-Hydroxy-6-methoxy-3-(3,4,5-trimethoxybenzoyl)-benzofuran-2-yl]-pyrazol-1-yl}-acetamide]	–	–	0.1 to 1

Source: patent publication US8278290B2, “Tubulin polymerisation inhibitors” (Biononics Limited, priority 2005, dated 2012)
